# According to paper PMC8672434 (Journal of the American Chemical Society, 2021):
# Several values for one entry are separate records, joined by “and”; a condition that tells them apart may be missing. Identical values can stand only once. Like-named read-outs stand apart in the source and are kept apart here.
# Key:
# [1] = test system: trypsin; assay: Host protease selectivity, FRET-based enzymatic assay: trypsin; format: biochemical
# [2] = molecular target: T1, SARS-CoV-2 M^pro (Severe acute respiratory syndrome coronavirus 2, UniProt P0DTD1); format: binding; conditions: native mass spectrometry
# [3] = molecular target: T1, SARS-CoV-2 M^pro; format: cell-based; conditions: read-out: FlipGFP M^pro assay EC50
# [4] = test system: SARS-CoV-2; format: cell-based; conditions: read-out: Antiviral EC50 against SARS-CoV-2 in Vero E6 cells
# [5] = molecular target: cathepsin K (Homo sapiens, UniProt P43235); assay: Host protease selectivity, FRET-based enzymatic assay: cathepsin K; format: biochemical
# [6] = molecular target: caspase-3 (Homo sapiens, UniProt P42574); assay: Host protease selectivity, FRET-based enzymatic assay: caspase-3; format: biochemical; conditions: for Inhibition of caspase-3 (in words): host protease selectivity
# [7] = molecular target: cathepsin B (Homo sapiens, UniProt P07858); assay: Host protease selectivity, FRET-based enzymatic assay: cathepsin B; format: biochemical
# [8] = molecular target: calpain I (Homo sapiens, UniProt P07384); assay: Host protease selectivity, FRET-based enzymatic assay: calpain I; format: biochemical
# [9] = molecular target: cathepsin L (Homo sapiens, UniProt P07711); assay: Host protease selectivity, FRET-based enzymatic assay: cathepsin L; format: biochemical; conditions: for Inhibition of cathepsin L (in words): host protease selectivity
# [10] = molecular target: T1, SARS-CoV-2 M^pro; assay: Thermal shift-binding assay; conditions: result in words
# [11] = test system: Calu-3 cells
# [12] = test system: Vero E6 cells
# [13] = molecular target: T1, SARS-CoV-2 M^pro; format: biochemical; conditions: read-out: SARS-CoV-2 M^pro IC50
# [14] = molecular target: T1, SARS-CoV-2 M^pro; assay: Fast dilution experiment; format: biochemical; conditions: 10 μM M^pro pre-incubated with 10 μM compound for 2 h at 30 °C, diluted 100-fold; compared with DMSO control
# [15] = test system: SARS-CoV-2; format: cell-based; conditions: read-out: Antiviral EC50 against SARS-CoV-2 in Calu-3 cells
# Sequence of caspase-3 (P42574 29-175): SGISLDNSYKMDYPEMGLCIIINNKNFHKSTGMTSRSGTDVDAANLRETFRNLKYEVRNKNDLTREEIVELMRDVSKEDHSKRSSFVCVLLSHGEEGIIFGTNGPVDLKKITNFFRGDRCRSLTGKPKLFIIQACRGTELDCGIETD
# Sequence of caspase-3 (P42574 176-277): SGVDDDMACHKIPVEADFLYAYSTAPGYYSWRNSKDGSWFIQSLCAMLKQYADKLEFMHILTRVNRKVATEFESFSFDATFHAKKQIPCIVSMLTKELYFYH
# Sequence of calpain I (P07384 whole entry): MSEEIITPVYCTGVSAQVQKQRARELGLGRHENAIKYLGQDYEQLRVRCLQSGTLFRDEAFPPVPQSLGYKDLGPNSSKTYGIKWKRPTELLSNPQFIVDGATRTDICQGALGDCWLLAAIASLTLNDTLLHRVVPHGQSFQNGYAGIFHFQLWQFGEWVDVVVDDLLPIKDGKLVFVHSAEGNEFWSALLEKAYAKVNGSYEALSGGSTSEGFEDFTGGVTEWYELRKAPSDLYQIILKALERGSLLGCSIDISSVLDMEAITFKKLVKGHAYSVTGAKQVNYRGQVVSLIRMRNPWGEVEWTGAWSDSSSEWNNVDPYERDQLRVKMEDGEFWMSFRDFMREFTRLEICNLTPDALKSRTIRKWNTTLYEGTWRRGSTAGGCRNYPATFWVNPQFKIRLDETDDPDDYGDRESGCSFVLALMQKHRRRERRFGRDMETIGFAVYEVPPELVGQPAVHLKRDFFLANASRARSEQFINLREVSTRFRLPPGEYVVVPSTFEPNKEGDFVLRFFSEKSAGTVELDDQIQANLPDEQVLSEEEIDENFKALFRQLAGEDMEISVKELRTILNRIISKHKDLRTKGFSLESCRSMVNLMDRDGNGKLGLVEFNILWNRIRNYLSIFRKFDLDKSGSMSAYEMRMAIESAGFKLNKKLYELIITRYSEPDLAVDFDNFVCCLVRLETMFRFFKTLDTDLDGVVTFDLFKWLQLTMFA
# Sequence of calpain I (P04632 whole entry, further chain): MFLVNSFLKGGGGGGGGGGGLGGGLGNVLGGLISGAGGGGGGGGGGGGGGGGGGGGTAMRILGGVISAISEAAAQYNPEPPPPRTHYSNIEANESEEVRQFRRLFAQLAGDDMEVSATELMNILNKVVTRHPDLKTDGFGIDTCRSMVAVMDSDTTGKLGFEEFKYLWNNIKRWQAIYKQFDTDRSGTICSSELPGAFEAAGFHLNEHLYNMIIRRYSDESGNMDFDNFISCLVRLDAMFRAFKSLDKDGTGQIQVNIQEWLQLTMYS
# Sequence of cathepsin K (P43235 115-329): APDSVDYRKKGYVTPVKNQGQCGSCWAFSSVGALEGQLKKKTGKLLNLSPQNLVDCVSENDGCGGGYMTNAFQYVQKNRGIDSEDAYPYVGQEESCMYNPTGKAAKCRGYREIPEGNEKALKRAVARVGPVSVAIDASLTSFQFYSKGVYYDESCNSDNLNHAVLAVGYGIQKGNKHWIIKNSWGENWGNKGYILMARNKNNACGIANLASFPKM
# Sequence of cathepsin L (P07711 114-333 limits assumed): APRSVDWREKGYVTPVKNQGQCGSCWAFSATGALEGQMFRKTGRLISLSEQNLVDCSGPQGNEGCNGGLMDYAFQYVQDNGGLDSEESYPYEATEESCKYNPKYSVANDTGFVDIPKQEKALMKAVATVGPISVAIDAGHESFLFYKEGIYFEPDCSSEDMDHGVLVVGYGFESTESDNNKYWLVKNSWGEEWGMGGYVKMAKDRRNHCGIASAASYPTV
structure (smiles),measurement,setting,value
C[C@H](NC(=O)[C@@H](c1cccnc1)N(C(=O)C(Cl)Cl)c1ccc(-c2ccccc2)cc1)c1ccccc1 [Jun9-62-2R],Inhibition of trypsin (in words),[1],did not show potent inhibition
same,Mass modification of M^pro (covalent adduct),[2],482 Da
same,EC50,[3],0.96 µM
same,EC50,[4],0.9 µM
same,Inhibition of cathepsin K (in words),[5],did not show potent inhibition
same,Inhibition of caspase-3 (in words),[6],did not show potent inhibition
same,Inhibition of cathepsin B (in words),[7],did not show potent inhibition
same,Inhibition of calpain I (in words),[8],did not show potent inhibition
same,Inhibition of cathepsin L (in words),[9],did not show potent inhibition
C[C@@H](CCc1ccccc1)NC(=O)[C@@H](c1cccnc1)N(C(=O)C(Cl)Cl)c1ccc(-c2ccccc2)cc1 [Jun9-90-4R],EC50,[4],1.1 µM
same,Tm shift of SARS-CoV-2 M^pro upon binding,[10],stabilized
CC#CC(=O)N(c1ccc(-c2ccccc2)cc1)C(C(=O)N[C@@H](C)c1ccccc1)c1cccnc1 (stereo partly drawn) [Jun9-62-1],CC50,[11],47.8 µM
same,CC50,[12],18 µM
C[C@H](NC(=O)[C@H](c1cccnc1)N(C(=O)C(Cl)Cl)c1ccc(-c2ccccc2)cc1)c1ccccc1 [Jun9-62-2S],IC50,[13],> 20 µM
C[C@H](NC(=O)[C@@H](c1cccnc1)N(C(=O)c1ccco1)c1ccc(-c2ccccc2)cc1)c1ccccc1 [23R],Recovered enzymatic activity after 100-fold dilution,[14],nearly complete recovery of enzymatic activity
C[C@H](NC(=O)[C@@H](c1cccnc1)N(C(=O)C(Br)(Br)Br)c1ccc(-c2ccccc2)cc1)c1ccccc1 [Jun9-88-6R],Mass modification of M^pro (covalent adduct),[2],526 Da
same,EC50,[4],0.58 µM
same,Inhibition of cathepsin K (in words),[5],did not show potent inhibition
same,Inhibition of caspase-3 (in words),[6],did not show potent inhibition
same,Inhibition of cathepsin B (in words),[7],did not show potent inhibition
same,Inhibition of calpain I (in words),[8],did not show potent inhibition
same,CC50,[12],5.48 µM
same,Inhibition of cathepsin L (in words),[9],did not show potent inhibition
same,IC50,"[9]; read-out: Cathepsin L IC50, FRET-based enzymatic assay",7.37 µM
same,Tm shift of SARS-CoV-2 M^pro upon binding,[10],stabilized
C[C@H](NC(=O)[C@H](c1cccnc1)N(C(=O)C(Br)(Br)Br)c1ccc(-c2ccccc2)cc1)c1ccccc1 [Jun9-88-6S],CC50,[12],5.99 µM
C[C@H](NC(=O)[C@@H](c1cccnc1)N(C(=O)C(Cl)Cl)c1ccc(-c2ccccc2)cc1)c1ccc(Br)cc1 [Jun9-90-3R],EC50,[15],2 µM
same,EC50,[4],2.07 µM
same,Tm shift of SARS-CoV-2 M^pro upon binding,[10],stabilized
C[C@H](NC(=O)[C@H](c1cccnc1)N(C(=O)C(Br)Br)c1ccc(-c2ccccc2)cc1)c1ccccc1 [Jun9-89-2S],IC50,[13]; FRET-based enzymatic assay,2.44 µM
same,CC50,[12],4.57 µM
C[C@H](NC(=O)[C@@H](c1cccnc1)N(C(=O)C(Br)Br)c1ccc(-c2ccccc2)cc1)c1ccccc1 [Jun9-89-2R],IC50,[13]; FRET-based enzymatic assay,0.08 µM
same,Mass modification of M^pro (covalent adduct),[2],526 Da
same,CC50,[12],8.94 µM
"CC(C)C[C@H](NC(=O)OCc1ccccc1)C(=O)N[C@@H](CC1CCNC1=O)C(O)S(=O)(=O)[O-].[Na+] (stereo partly drawn) [GC-376, reference compound]",IC50,"[1]; read-out: Trypsin IC50, FRET-based enzymatic assay",[…]
same,EC50,[4],1.51 µM
same,Inhibition of cathepsin K (in words),[5],potent inhibition
same,IC50,"[6]; read-out: Caspase-3 IC50, FRET-based enzymatic assay",> 20 µM
same,Inhibition of cathepsin B (in words),[7],potent inhibition
same,Inhibition of calpain I (in words),[8],potent inhibition
same,Inhibition of cathepsin L (in words),[9],potent inhibition
C[C@H](NC(=O)[C@@H](c1cccnc1)N(C(=O)C(Cl)(Br)Br)c1ccc(-c2ccccc2)cc1)c1ccccc1 [Jun9-89-4R],Mass modification of M^pro (covalent adduct),[2],481 Da and 561 Da
same,CC50,[12],8.41 µM
C[C@H](NC(=O)C(c1cccnc1)N(C(=O)C(Cl)(Cl)Br)c1ccc(-c2ccccc2)cc1)c1ccccc1 (stereo partly drawn) [Jun9-89-3],CC50,[12],32.4 µM
C[C@H](NC(=O)[C@H](c1cccnc1)N(C(=O)C(Cl)Cl)c1ccc(-c2ccccc2)cc1)c1ccc(Br)cc1 [Jun9-90-3S],IC50,[13],> 20 µM
